Assays:
[1] = target: T1, Cyclin-dependent kinase 2 (Homo sapiens, UniProt P24941)
Description: Inhibition of CDK2 (unknown origin)-cyclin A interaction preincubated for 30 mins at room temperature followed by incubation at 40 degC for 30 mins by SDS-PAGE analysis

[2] = target: T1, Cyclin-dependent kinase 2; remark: listed apart in the source
[3] = target: T1, Cyclin-dependent kinase 2; remark: listed apart in the source
Description: Displacement of B-Alexa-Fluor647 from CDK2 (unknown origin) by fluorescence polarization assay

[4] = target: T1, Cyclin-dependent kinase 2; remark: listed apart in the source
Description: Binding affinity to human CDK2 by isothermal titration calorimetric analysis

| IC50 [1] | Kd [2] | Ki [3] | Kd [4] | SMILES |
| --- | --- | --- | --- | --- |
| > 10 µM | > 40 µM | > 40 µM |  | COC(=O)[C@H](Cc1ccc(O)cc1)NC(=O)c1cc(C(N)=O)c2cc(-c3cccs3)ccc2n1 |
| > 10 µM | > 40 µM | > 40 µM |  | O=C(NCCc1ccc(O)cc1)c1cc(C(=O)O)c2cc(-c3cccs3)ccc2n1 |
| > 10 µM | 0.35 µM | 0.16 µM |  | CN(C)C(=O)[C@H](Cc1ccc(O)cc1)NC(=O)c1cc(C(=O)O)c2cc(/C=C/c3ccc(Cl)cc3)ccc2n1 |
| > 10 µM | 1.1 µM | 0.9 µM | 1 µM | COC(=O)[C@H](Cc1ccc(O)cc1)NC(=O)c1cc(C(=O)O)c2cc(-c3cccs3)ccc2n1 |
| > 10 µM | > 10 µM | 12 µM |  | O=C(N[C@@H](Cc1ccc(O)cc1)C(=O)O)c1cc(C(=O)O)c2cc(-c3cccc(C(F)(F)F)c3)ccc2n1 |
| > 10 µM | > 40 µM | > 40 µM |  | COC(=O)[C@H](Cc1ccc(OC)cc1)NC(=O)c1cc(C(=O)O)c2cc(-c3cccc(C(F)(F)F)c3)ccc2n1 |
| > 10 µM | 0.3 µM | 0.1 µM |  | CNC(=O)[C@H](Cc1ccc(O)cc1)NC(=O)c1cc(C(=O)O)c2cc(/C=C/c3ccc(Cl)cc3)ccc2n1 |
| > 10 µM | 4 µM | 2.5 µM |  | C[C@H](Cc1ccc(O)cc1)NC(=O)c1cc(C(=O)O)c2cc(-c3cccc(C(F)(F)F)c3)ccc2n1 |
| > 10 µM | 0.4 µM | 0.3 µM |  | CCC[C@H](Cc1ccc(O)cc1)NC(=O)c1cc(C(=O)O)c2cc(-c3cccc(C(F)(F)F)c3)ccc2n1 |
| > 10 µM | 2.4 µM | 2.8 µM |  | COC(=O)[C@H](Cc1ccc(O)cc1)NC(=O)c1cc(C(=O)O)c2cc(N3CCOCC3)ccc2n1 |
| > 10 µM | 0.005 µM | < 0.1 µM |  | COC(=O)[C@H](Cc1ccc(O)cc1)NC(=O)c1cc(C(=O)O)c2cc(/C=C/c3ccc(Cl)cc3)ccc2n1 |
| > 10 µM | 0.04 µM | < 0.1 µM | 0.05 µM | COC(=O)[C@H](Cc1ccc(O)cc1)NC(=O)c1cc(C(=O)O)c2cc(-c3cccc(C(F)(F)F)c3)ccc2n1 |
| > 10 µM | 0.076 µM | < 0.1 µM |  | CCCCCCc1ccc2nc(C(=O)N[C@@H](Cc3ccc(O)cc3)C(=O)OC)cc(C(=O)O)c2c1 |
| > 10 µM | > 40 µM | > 40 µM |  | COC(=O)[C@H](Cc1ccc(O)cc1)NC(=O)c1cc(C(=O)NS(C)(=O)=O)c2cc(-c3cccs3)ccc2n1 |
| > 10 µM | 0.32 µM | 0.2 µM |  | COC(=O)[C@H](Cc1ccc(O)cc1)NC(=O)c1cc(C(=O)O)c2cc(-c3cc(Cl)cc(Cl)c3)ccc2n1 |
| > 10 µM | 0.048 µM | < 0.1 µM | 0.055 µM | COC(=O)[C@H](Cc1ccc(O)cc1)NC(=O)c1cc(C(=O)O)c2cc(CCc3ccc(Cl)cc3)ccc2n1 |
| > 10 µM | > 40 µM | > 40 µM |  | COC(=O)[C@H](Cc1ccc(O)cc1)NC(=O)c1cc(CO)c2cc(-c3cccc(C(F)(F)F)c3)ccc2n1 |
| > 10 µM | 4 µM | 2.5 µM |  | COC(=O)[C@H](Cc1ccc(F)cc1)NC(=O)c1cc(C(=O)O)c2cc(-c3cccc(C(F)(F)F)c3)ccc2n1 |
| > 10 µM | 0.24 µM | 0.1 µM |  | COC[C@H](Cc1ccc(O)cc1)NC(=O)c1cc(C(=O)O)c2cc(-c3cccc(C(F)(F)F)c3)ccc2n1 |
| > 10 µM | 12 µM | 10 µM |  | COC(=O)[C@H](Cc1ccc(O)cc1)NC(=O)c1cc(C(=O)O)c2cc(-c3ccccc3)ccc2n1 |
| > 10 µM | > 40 µM | > 40 µM |  | COC(=O)[C@H](Cc1cccc(O)c1)NC(=O)c1cc(C(=O)O)c2cc(-c3cccc(C(F)(F)F)c3)ccc2n1 |
| > 10 µM | 0.025 µM | < 0.1 µM |  | COC[C@H](Cc1ccc(O)cc1)NC(=O)c1cc(C(=O)O)c2cc(/C=C/c3ccc(Cl)cc3)ccc2n1 |
| > 10 µM | 0.9 µM | 0.9 µM |  | COC(=O)[C@H](Cc1ccc(O)cc1)NC(=O)c1cc(C(=O)O)c2cc(-c3ccc(Cl)cc3)ccc2n1 |
